Assay results taken from the Kinase Knowledgebase extract (Sharma et al. 2016).
Several values for one entry are separate records, joined by “and”; a condition that tells them apart may be missing. Identical values can stand only once.

Target: MAPK14 (human) (UniProt Q16539)
Assay: Inhibition of MAPK14 Kinase Activity

MAPK14 (human), sequence (Q16539 whole entry, looked up): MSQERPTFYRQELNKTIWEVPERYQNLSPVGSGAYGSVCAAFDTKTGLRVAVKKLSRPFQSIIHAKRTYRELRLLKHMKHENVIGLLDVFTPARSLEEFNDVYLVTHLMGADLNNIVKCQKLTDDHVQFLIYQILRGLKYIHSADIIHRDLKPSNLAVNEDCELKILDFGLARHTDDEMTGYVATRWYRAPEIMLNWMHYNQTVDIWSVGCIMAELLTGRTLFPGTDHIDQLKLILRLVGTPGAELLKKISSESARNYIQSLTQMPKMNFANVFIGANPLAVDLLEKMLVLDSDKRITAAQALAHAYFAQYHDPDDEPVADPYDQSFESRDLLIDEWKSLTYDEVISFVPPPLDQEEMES

| SMILES | IC50 | Ki |
| --- | --- | --- |
| CC(C)n1c(CNS(C)(=O)=O)nc(OCc2ccc(F)cc2F)c(Br)c1=O | 59.4 nM | 28.5 nM |
| CC(C)n1c(OCCNS(C)(=O)=O)nc(OCc2ccc(F)cc2F)c(Br)c1=O | 18.5 nM | 9.47 nM |
| CC(C)n1c(OCCCC(N)=O)nc(OCc2ccc(F)cc2F)c(Cl)c1=O | 155 nM | 73.4 nM |
| CC(C)n1c(NCCNC(=O)C(C)(C)O)nc(OCc2ccc(F)cc2F)c(Cl)c1=O | 51.6 nM | 24.7 nM |
| CC(=O)NCCOc1nc(OCc2ccc(F)cc2F)c(Cl)c(=O)n1C(C)C | 80.4 nM | 49.3 nM |
| CC(=O)N1CCC(Nc2nc(OCc3ccc(F)cc3F)c(Br)c(=O)n2C(C)C)CC1 | 87.9 nM | 41.4 nM |
| CC(C)n1c(-c2ccc(C(N)=O)cc2)nc(OCc2ccc(F)cc2F)c(Br)c1=O | 110 nM | 60.6 nM |
| CNC(=O)CCCc1nc(OCc2ccc(F)cc2F)c(Br)c(=O)n1C(C)C | 557 nM | 255 nM |
| CC(=O)N[C@@H]1CCN(c2nc(OCc3ccc(F)cc3F)c(Cl)c(=O)n2C(C)C)C1 | 578 nM | 371 nM |
| CC(C)n1c(NCCNC(=O)CO)nc(OCc2ccc(F)cc2F)c(Cl)c1=O | 22.1 nM | 10.2 nM |
| CC(C)n1cnc(OCc2ccc(F)cc2F)c(Br)c1=O | 53 nM | 28.3 nM |
| CC(C)n1c(NCCCNC(=O)CO)nc(OCc2ccc(F)cc2F)c(Br)c1=O | 12.5 nM | 5.95 nM |
| CC(C)n1c(N2CCNCC2)nc(OCc2ccc(F)cc2F)c(Br)c1=O | 732 nM | 379 nM |
| CC(C)n1c(N2CCN(C(=O)C(C)(C)N)CC2)nc(OCc2ccc(F)cc2F)c(Br)c1=O | 531 nM | 222 nM |
| CC(C)n1c(CCCC(=O)NC[C@@H](C)O)nc(OCc2ccc(F)cc2F)c(Cl)c1=O | 594 nM | 310 nM |
| CC(C)n1c(N2CC[C@@H](NC(=O)OCc3ccccn3)C2)nc(OCc2ccc(F)cc2F)c(Br)c1=O | 1220 nM | 756 nM |
| CC(C)n1c(NCC(=O)NCCO)nc(OCc2ccc(F)cc2F)c(Br)c1=O | 221 nM | 105 nM |
| C=CCc1nc(OCc2ccc(F)cc2F)c(Cl)c(=O)n1C(C)C | 256 nM | 133 nM |
| CC(C)n1c(N2CCN(C(=O)CN)CC2)nc(OCc2ccc(F)cc2F)c(Br)c1=O | 158 nM | 81 nM |
| CC(C)n1c(N2CC[C@@H](NC(=O)OCc3cccnc3)C2)nc(OCc2ccc(F)cc2F)c(Br)c1=O | 810 nM | 476 nM |
| CC(C)n1c(-c2cccc(C(N)=O)c2)nc(OCc2ccc(F)cc2F)c(Cl)c1=O | 1020 nM | 557 nM |

| SMILES | IC50 | Ki |
| --- | --- | --- |
| CC(C)n1c(N2CC[C@@H](NCCO)C2)nc(OCc2ccc(F)cc2F)c(Br)c1=O | 615 nM | 343 nM |
| CC(C)n1c(O)nc(OCc2ccc(F)cc2F)c(Cl)c1=O | 267 nM | 139 nM |
| CC(C)n1c(NCCCNC(=O)C(C)(C)O)nc(OCc2ccc(F)cc2F)c(Br)c1=O | 23.8 nM | 12.7 nM |
| CC(C)n1c(N2CCC(O)CC2)nc(OCc2ccc(F)cc2F)c(Br)c1=O | 304 nM | 166 nM |
| CC(C)n1c(S(C)(=O)=O)nc(OCc2ccc(F)cc2F)c(Br)c1=O | 299 nM | 156 nM |
| CC(C)n1c(N2CCC(NC(=O)CN)C2)nc(OCc2ccc(F)cc2F)c(Br)c1=O (stereo not drawn) | 217 nM | 118 nM |
| CC(C)n1c(CCC(N)=O)nc(OCc2ccc(F)cc2F)c(Cl)c1=O | 2040 nM | 976 nM |
| CC(C)n1c(NCCCNS(C)(=O)=O)nc(OCc2ccc(F)cc2F)c(Br)c1=O | 7.2 nM | 3.32 nM |
| CNC(=O)CNc1nc(OCc2ccc(F)cc2F)c(Br)c(=O)n1C(C)C | 80 nM | 41.9 nM |
| CC(C)n1c(CCC(=O)O)nc(OCc2ccc(F)cc2F)c(Cl)c1=O | 2330 nM | 1110 nM |
| CC(C)n1c(N2CC[C@H](N)C2)nc(OCc2ccc(F)cc2F)c(Cl)c1=O | 1660 nM | 1070 nM |
| CC(C)n1c(N2CCC[C@@H]2CO)nc(OCc2ccc(F)cc2F)c(Br)c1=O | 29.8 nM | 15.7 nM |
| CC(C)n1c(NCCN)nc(OCc2ccc(F)cc2F)c(Br)c1=O | 143 nM | 78.1 nM |
| CC(C)n1c(N2CC[C@H](NC(=O)C(C)(C)O)C2)nc(OCc2ccc(F)cc2F)c(Cl)c1=O | 864 nM | 555 nM |
| CC(C)n1c(CCCO)nc(OCc2ccc(F)cc2F)c(Cl)c1=O | 392 nM | 202 nM |
| Cc1nc(OCc2ccc(F)cc2F)c(Cl)c(=O)n1C(C)C | 346 nM | 155 nM |
| CC(C)n1c(NCCNC(N)=O)nc(OCc2ccc(F)cc2F)c(Cl)c1=O | 19.6 nM | 10.1 nM |
| CC(C)n1c(NCCNC(=O)C(C)(C)O)nc(OCc2ccc(F)cc2F)c(Br)c1=O | 17.2 nM | 8.14 nM |
| CC(C)n1c(NCCCC(N)=O)nc(OCc2ccc(F)cc2F)c(Br)c1=O | 17.3 nM | 8.82 nM |
| CC(C)n1c(NCC(=O)N2CCCC2)nc(OCc2ccc(F)cc2F)c(Br)c1=O | 215 nM | 102 nM |
| CC(C)n1c(NCCC(C)(C)C)nc(OCc2ccc(F)cc2F)c(Br)c1=O | 131 nM | 66.1 nM |

| SMILES | IC50 | Ki |
| --- | --- | --- |
| CC(C)n1c(N[C@@H](C)C(N)=O)nc(OCc2ccc(F)cc2F)c(Br)c1=O | 4.6 nM | 1.73 nM |
| CC(C)n1c(NC[C@H](O)CO)nc(OCc2ccc(F)cc2F)c(Br)c1=O | 18.3 nM | 9.05 nM |
| CC(=O)NCCCCc1nc(OCc2ccc(F)cc2F)c(Cl)c(=O)n1C(C)C | 334 nM | 159 nM |
| CNC(=O)CCc1nc(OCc2ccc(F)cc2F)c(Cl)c(=O)n1C(C)C | 2430 nM | 1160 nM |
| CC(C)n1c(NCC(N)=O)nc(OCc2ccc(F)cc2F)c(Br)c1=O | 14.1 nM | 7.03 nM |
| CC(C)n1c(N2CCC(N)C2)nc(OCc2ccc(F)cc2F)c(Br)c1=O (stereo not drawn) | 150 nM | 62.2 nM |
| CNC(=O)CCCc1nc(OCc2ccc(F)cc2F)c(Cl)c(=O)n1C(C)C | 490 nM | 252 nM |
| CC(C)n1c(-c2ccccc2)nc(OCc2ccc(F)cc2F)c(Cl)c1=O | 260 nM | 144 nM |
| CC(C)n1c(-c2ccccc2)nc(OCc2ccc(F)cc2F)c(Br)c1=O | 112 nM | 59.1 nM |
| CC(C)n1c(NCCC(N)=O)nc(OCc2ccc(F)cc2F)c(Br)c1=O | 12.8 nM and 14.2 nM | 6.86 nM and 6.37 nM |
| CC(C)n1c(NCCCNC(N)=O)nc(OCc2ccc(F)cc2F)c(Br)c1=O | 5 nM | 2.09 nM |
| CC(C)n1c(NC[C@@H](O)CO)nc(OCc2ccc(F)cc2F)c(Br)c1=O | 21.6 nM | 11.1 nM |
| CC(=O)NCCOc1nc(OCc2ccc(F)cc2F)c(Br)c(=O)n1C(C)C | 51 nM | 27.4 nM |
| CC(C)n1c(OCCNC(N)=O)nc(OCc2ccc(F)cc2F)c(Cl)c1=O | 21.2 nM | 12.4 nM |
| CC(C)n1c(OCCNS(C)(=O)=O)nc(OCc2ccc(F)cc2F)c(Cl)c1=O | 26.3 nM | 15.5 nM |
| Cc1nc(OCc2ccc(F)cc2CNC(=O)NC2CCCCC2)c(Br)c(=O)n1C(C)C | 786 nM | 372 nM |
| CC(C)n1c(-c2cccc(C(N)=O)c2)nc(OCc2ccc(F)cc2F)c(Br)c1=O | 608 nM | 378 nM |
| CCNC(=O)NCc1cc(F)ccc1COc1nc(C)n(C(C)C)c(=O)c1Br | 129 nM | 62.1 nM |
| CC(C)n1c(N2CCCC(C(N)=O)C2)nc(OCc2ccc(F)cc2F)c(Br)c1=O (stereo not drawn) | 119 nM | 61.6 nM |
| CC(C)n1c(CCCC(=O)O)nc(OCc2ccc(F)cc2F)c(Cl)c1=O | 497 nM | 247 nM |
| CC(C)n1c(OCCN)nc(OCc2ccc(F)cc2F)c(Br)c1=O | 334 nM | 140 nM |

| SMILES | IC50 | Ki |
| --- | --- | --- |
| CC(C)n1c(NCC(N)=O)nc(OCc2ccc(F)cc2F)c(Cl)c1=O | 102 nM | 48 nM |
| CC(C)n1c(CCCC(=O)NCCO)nc(OCc2ccc(F)cc2F)c(Br)c1=O | 600 nM | 278 nM |
| CC(C)n1c(NCC(C)(C)O)nc(OCc2ccc(F)cc2F)c(Br)c1=O | 31.7 nM | 16.6 nM |
| CC(C)n1c(CCCC(=O)NCCO)nc(OCc2ccc(F)cc2F)c(Cl)c1=O | 612 nM | 315 nM |
| CC(=O)NCCNc1nc(OCc2ccc(F)cc2F)c(Cl)c(=O)n1C(C)C | 28.1 nM | 14.7 nM |
| CC(=O)NCc1nc(OCc2ccc(F)cc2F)c(Br)c(=O)n1C(C)C | 1380 nM | 675 nM |
| CCN[C@@H]1CCN(c2nc(OCc3ccc(F)cc3F)c(Br)c(=O)n2C(C)C)C1 | 131 nM | 71.6 nM |
| CN[C@@H]1CCN(c2nc(OCc3ccc(F)cc3F)c(Br)c(=O)n2C(C)C)C1 | 12.8 nM | 6.37 nM |
| CC(C)n1c(OCCCC(=O)NCCO)nc(OCc2ccc(F)cc2F)c(Cl)c1=O | 330 nM | 157 nM |
| CC(C)n1cnc(OCc2ccc(F)cc2F)c(Cl)c1=O | 296 nM | 148 nM |
| C=CCCc1nc(OCc2ccc(F)cc2F)c(Cl)c(=O)n1C(C)C | 164 nM | 79.9 nM |
| CC(C)n1c(NCCNC(N)=O)nc(OCc2ccc(F)cc2F)c(Br)c1=O | 14.2 nM | 7.04 nM |
| CC(C)n1c(OCCNC(=O)NCCO)nc(OCc2ccc(F)cc2F)c(Cl)c1=O | 398 nM | 190 nM |
| CC(C)n1c(-c2ccccc2)nc(OCc2ccc(F)cc2F)cc1=O | 3180 nM | 1690 nM |
| CC(C)n1c(N2CCC[C@H]2C(N)=O)nc(OCc2ccc(F)cc2F)c(Br)c1=O | 23.8 nM | 12.3 nM |
| CC(C)n1c(N2CC[C@@H](O)C2)nc(OCc2ccc(F)cc2F)c(Br)c1=O | 605 nM | 297 nM |
| CC(C)n1c(CCCC(N)=O)nc(OCc2ccc(F)cc2F)c(Cl)c1=O | 256 nM | 127 nM |
| CC(C)n1c(OCCCC(=O)O)nc(OCc2ccc(F)cc2F)c(Cl)c1=O | 229 nM | 109 nM |
| CC(C)n1c(OCCCCO)nc(OCc2ccc(F)cc2F)c(Cl)c1=O | 139 nM | 68.5 nM |
| CC(C)n1c(OCC(N)=O)nc(OCc2ccc(F)cc2F)c(Br)c1=O | 270 nM | 132 nM |
| CC(=O)N[C@H]1CCN(c2nc(OCc3ccc(F)cc3F)c(Cl)c(=O)n2C(C)C)C1 | 703 nM | 451 nM |
